From PubChem BioAssay AID1259407 (Chemical Carcinogenesis Research Information System (CCRIS), 2018)
Calls of active or inactive are those of the source. How the calls were made is not given here.

Test system: CCRIS mutagenicity, Ames/micronucleus/aberration tests
Test: CCRIS mutagenicity studies

## Oc1cccc(O)c1
End Point: In vitro chromosomal aberrations, Test System: Chinese hamster lung (CHL/IU) cells, Metabolic Activation: Rat, Liver, S9, Phenobarbital and 5,6-benzoflavone
  mutagenic call: active; positive (structural changes and ploidy). weak response.
End Point: MORPHOLOGICAL TRANSFORMATION, Test System: SYRIAN HAMSTER EMBRYO CELLS (SHE)
  mutagenic call: inactive; negative
End Point: MORPHOLOGICAL TRANSFORMATION, Test System: SYRIAN HAMSTER EMBRYO CELLS (SHE), Metabolic Activation: NONE
  mutagenic call: inactive; negative
Test System: AMES SALMONELLA TYPHIMURIUM, Strain/Indicator: TA97, Metabolic Activation: NONE, Method: PREINCUBATION
  mutagenic call: inactive; negative
Test System: AMES SALMONELLA TYPHIMURIUM, Strain/Indicator: TA97, Metabolic Activation: RAT, LIVER, S-9, PHENOBARBITAL, Method: PREINCUBATION
  mutagenic call: inactive; negative
Test System: AMES SALMONELLA TYPHIMURIUM, Strain/Indicator: TA98, Metabolic Activation: HAMSTER, LIVER, S-9, AROCLOR 1254 (10%), Method: PREINCUBATION
  mutagenic call: inactive; negative
Test System: AMES SALMONELLA TYPHIMURIUM, Strain/Indicator: TA98, Metabolic Activation: NONE
  mutagenic call: inactive; negative
Test System: AMES SALMONELLA TYPHIMURIUM, Strain/Indicator: TA98, Metabolic Activation: NONE, Method: PREINCUBATION
  mutagenic call: inactive; negative
Test System: AMES SALMONELLA TYPHIMURIUM, Strain/Indicator: TA98, Metabolic Activation: RAT, LIVER, S-9, AROCLOR 1254 (10%), Method: PREINCUBATION
  mutagenic call: inactive; negative
Test System: AMES SALMONELLA TYPHIMURIUM, Strain/Indicator: TA98, Metabolic Activation: RAT, LIVER, S-9, PHENOBARBITAL, Method: PREINCUBATION
  mutagenic call: inactive; negative
Test System: AMES SALMONELLA TYPHIMURIUM, Strain/Indicator: TA98, Metabolic Activation: RAT, LIVER, S-9, SODIUM PHENOBARBITAL AND 5,6-BENZOFLAVONE, Method: PREINCUBATION
  mutagenic call: inactive; negative
Test System: AMES SALMONELLA TYPHIMURIUM, Strain/Indicator: TA98, Metabolic Activation: RAT, LIVER, S-9, Method: STANDARD PLATE
  mutagenic call: active; positive
Test System: AMES SALMONELLA TYPHIMURIUM, Strain/Indicator: TA98, Metabolic Activation: S-9
  mutagenic call: inactive; negative
Test System: AMES SALMONELLA TYPHIMURIUM, Strain/Indicator: TA100, Metabolic Activation: HAMSTER, LIVER, S-9, AROCLOR 1254 (10%), Method: PREINCUBATION
  mutagenic call: inactive; negative
Test System: AMES SALMONELLA TYPHIMURIUM, Strain/Indicator: TA100, Metabolic Activation: NONE, Method: PREINCUBATION
  mutagenic call: inactive; negative
Test System: AMES SALMONELLA TYPHIMURIUM, Strain/Indicator: TA100, Metabolic Activation: RAT, LIVER, S-9, AROCLOR 1254 (10%), Method: PREINCUBATION
  mutagenic call: inactive; negative
Test System: AMES SALMONELLA TYPHIMURIUM, Strain/Indicator: TA100, Metabolic Activation: RAT, LIVER, S-9, SODIUM PHENOBARBITAL AND 5,6-BENZOFLAVONE, Method: PREINCUBATION
  mutagenic call: inactive; negative
Test System: AMES SALMONELLA TYPHIMURIUM, Strain/Indicator: TA102, Metabolic Activation: NONE, Method: PREINCUBATION
  mutagenic call: inactive; negative
Test System: AMES SALMONELLA TYPHIMURIUM, Strain/Indicator: TA102, Metabolic Activation: RAT, LIVER, S-9, SODIUM PHENOBARBITAL AND 5,6-BENZOFLAVONE, Method: PREINCUBATION
  mutagenic call: inactive; negative
Test System: AMES SALMONELLA TYPHIMURIUM, Strain/Indicator: TA104, Metabolic Activation: NONE, Method: PREINCUBATION
  mutagenic call: inactive; negative
Test System: AMES SALMONELLA TYPHIMURIUM, Strain/Indicator: TA104, Metabolic Activation: RAT, LIVER, S-9, SODIUM PHENOBARBITAL AND 5,6-BENZOFLAVONE, Method: PREINCUBATION
  mutagenic call: inactive; negative
Test System: AMES SALMONELLA TYPHIMURIUM, Strain/Indicator: TA1535, Metabolic Activation: HAMSTER, LIVER, S-9, AROCLOR 1254 (10%), Method: PREINCUBATION
  mutagenic call: inactive; negative
Test System: AMES SALMONELLA TYPHIMURIUM, Strain/Indicator: TA1535, Metabolic Activation: NONE, Method: PREINCUBATION
  mutagenic call: inactive; negative
Test System: AMES SALMONELLA TYPHIMURIUM, Strain/Indicator: TA1535, Metabolic Activation: RAT, LIVER, S-9, AROCLOR 1254 (10%), Method: PREINCUBATION
  mutagenic call: inactive; negative
Test System: AMES SALMONELLA TYPHIMURIUM, Strain/Indicator: TA1535, Metabolic Activation: RAT, LIVER, S-9, SODIUM PHENOBARBITAL AND 5,6-BENZOFLAVONE, Method: PREINCUBATION
  mutagenic call: inactive; negative
Test System: AMES SALMONELLA TYPHIMURIUM, Strain/Indicator: TA1537, Metabolic Activation: HAMSTER, LIVER, S-9, AROCLOR 1254 (10%), Method: PREINCUBATION
  mutagenic call: inactive; negative
Test System: AMES SALMONELLA TYPHIMURIUM, Strain/Indicator: TA1537, Metabolic Activation: NONE, Method: PREINCUBATION
  mutagenic call: inactive; negative
Test System: AMES SALMONELLA TYPHIMURIUM, Strain/Indicator: TA1537, Metabolic Activation: RAT, LIVER, S-9, AROCLOR 1254 (10%), Method: PREINCUBATION
  mutagenic call: inactive; negative
Test System: AMES SALMONELLA TYPHIMURIUM, Strain/Indicator: TA1537, Metabolic Activation: RAT, LIVER, S-9, SODIUM PHENOBARBITAL AND 5,6-BENZOFLAVONE, Method: PREINCUBATION
  mutagenic call: inactive; negative
Test System: E. COLI, Strain/Indicator: B/R WP2 (TRP-HCR-), Metabolic Activation: RAT, LIVER, S-9, Method: STANDARD PLATE
  mutagenic call: active; positive
Test System: E. COLI, Strain/Indicator: WP2UVRA/PKM101, Metabolic Activation: NONE, Method: PREINCUBATION
  mutagenic call: inactive; negative
Test System: E. COLI, Strain/Indicator: WP2UVRA/PKM101, Metabolic Activation: RAT, LIVER, S-9, SODIUM PHENOBARBITAL AND 5,6-BENZOFLAVONE, Method: PREINCUBATION
  mutagenic call: inactive; negative
Test System: E. COLI, Strain/Indicator: WP2UVRA, Metabolic Activation: NONE, Method: PREINCUBATION
  mutagenic call: inactive; negative
Test System: E. COLI, Strain/Indicator: WP2UVRA, Metabolic Activation: RAT, LIVER, S-9, SODIUM PHENOBARBITAL AND 5,6-BENZOFLAVONE, Method: PREINCUBATION
  mutagenic call: inactive; negative
Test System: MOUSE LYMPHOMA, Strain/Indicator: L5178Y (TK+/TK-), Metabolic Activation: NONE, Method: SUSPENSION/PLATE
  mutagenic call: active; positive

## CO/N=C(\C(=O)N[C@@H]1C(=O)N2C(C(=O)O)=C(CSC(=O)c3ccco3)CS[C@H]12)c1csc(N)n1
Test System: AMES SALMONELLA TYPHIMURIUM, Strain/Indicator: TA98, Metabolic Activation: NONE, Method: STANDARD PLATE
  mutagenic call: inactive; negative
Test System: AMES SALMONELLA TYPHIMURIUM, Strain/Indicator: TA98, Metabolic Activation: RAT, LIVER, S-9, AROCLOR 1254, Method: STANDARD PLATE
  mutagenic call: inactive; negative
Test System: AMES SALMONELLA TYPHIMURIUM, Strain/Indicator: TA100, Metabolic Activation: NONE, Method: STANDARD PLATE
  mutagenic call: inactive; negative
Test System: AMES SALMONELLA TYPHIMURIUM, Strain/Indicator: TA100, Metabolic Activation: RAT, LIVER, S-9, AROCLOR 1254, Method: STANDARD PLATE
  mutagenic call: inactive; negative
Test System: AMES SALMONELLA TYPHIMURIUM, Strain/Indicator: TA1535, Metabolic Activation: NONE, Method: STANDARD PLATE
  mutagenic call: inactive; negative
Test System: AMES SALMONELLA TYPHIMURIUM, Strain/Indicator: TA1535, Metabolic Activation: RAT, LIVER, S-9, AROCLOR 1254, Method: STANDARD PLATE
  mutagenic call: inactive; negative
Test System: AMES SALMONELLA TYPHIMURIUM, Strain/Indicator: TA1537, Metabolic Activation: NONE, Method: STANDARD PLATE
  mutagenic call: inactive; negative
Test System: AMES SALMONELLA TYPHIMURIUM, Strain/Indicator: TA1537, Metabolic Activation: RAT, LIVER, S-9, AROCLOR 1254, Method: STANDARD PLATE
  mutagenic call: inactive; negative
Test System: AMES SALMONELLA TYPHIMURIUM, Strain/Indicator: TA1538, Metabolic Activation: NONE, Method: STANDARD PLATE
  mutagenic call: inactive; negative
Test System: AMES SALMONELLA TYPHIMURIUM, Strain/Indicator: TA1538, Metabolic Activation: RAT, LIVER, S-9, AROCLOR 1254, Method: STANDARD PLATE
  mutagenic call: inactive; negative
Test System: CHINESE HAMSTER V-79, Strain/Indicator: V-79 (HPRT)/6-THIOGUANINE, Metabolic Activation: NONE
  mutagenic call: inactive; negative
Test System: CHINESE HAMSTER V-79, Strain/Indicator: V-79 (HPRT)/6-THIOGUANINE, Metabolic Activation: RAT, LIVER, S-9, AROCLOR 1254
  mutagenic call: inactive; negative
Test System: UDS RAT HEPATOCYTES, Strain/Indicator: THY INCORP, Metabolic Activation: NONE, Method: IN VIVO-IN VITRO
  mutagenic call: inactive; negative

## CCN(CC)c1ccc(N=O)cc1
Test System: AMES SALMONELLA TYPHIMURIUM, Strain/Indicator: TA100, Metabolic Activation: NONE, Method: FLUCTUATION TEST
  mutagenic call: active; positive
